Tested on: immortalized human sebocyte cell line, SZ95
Assay: In vitro assay of inhibition of lipid synthesis
Type: cell-based
Details: 48 h, SZ95 sebocytes
Protocol: In Vitro Assay of Inhibition of Lipid Synthesis
To evaluate the inhibition of lipid synthesis, the immortalized human sebocyte cell line, SZ95 (stablished by Zouboulis, C. C. et al J Invest Dermatol 1999; 113:1011-20), was treated with arachidonic acid (AA) in presence or absence of compound. Lipids were detected by using a lipid sensing fluorophore.
Compounds were dissolved in dimethylsulfoxide (DMSO) 100%. Then the stocks were serial diluted 1/3 in DMSO 100%, and this battery of solutions were diluted 1/10 in culture medium, to minimize the percentage of the DMSO over cells.
10 k cells were plated in 384 well microtiter plates and incubated at 37° C. and 5% CO2 in DMEM/F12 supplemented with 10% FBS, 1.25 ng/ml of rhEGF and GA-1000 before of compound and stimulus addition. After 24 h, compounds dissolved in culture media were added over cells, diluting the solutions prepared 1/40 in the final volume of the assay. Then, cells and compounds were preincubated for 30 min at 37° C. and 5% CO2. After this prior incubation, the lipid synthesis was induced by 75 μM of AA final solution, preparing a solution 10× in culture media. Finally, SZ95 treated were incubated for 48 h at 37° C. and 5% CO2.
Neutral lipids were measured using AdipoRed™, purchased from LONZA. To do that, cells were washed with PBS and incubated with a solution of AdipoRed™ (final dilution 1/80 in PBS) for 30 min at room temperature. After the staining process, the fluorescence intensity (FI) was quantified using a fluorescence plate reader (excitation 485 nm; emission 535).
Activity of compounds were calculated as % of inhibition considering the maximal fluorescence for AA-stimulated cells and the minimum fluorescence for unstimulated cells as controls.

[1] = lipid synthesis induced by 75 μM arachidonic acid, AdipoRed fluorescence, Table 1
[2] = 75 μM arachidonic acid, AdipoRed, Table 2, finer classes for compounds with IC50 less than 250 nM

Row | Structure (SMILES) | IC50 [1] [nM] | IC50 [2] [nM]
1 | CCCCCCCCCCCCCc1c[nH]c(C(=O)OCCCCCCCCO)c1F [Example 38, 8-Hydroxyoctyl 3-fluoro-4-tridecyl-1H-pyrrole-2-carboxylate] | 250 to 1000 | –
2 | CCCCCCCCCCCCc1cc(Cl)c(C(=O)O)[nH]1 [Example 65, 3-Chloro-5-dodecyl-1H-pyrrole-2-carboxylic acid] | < 250 | 50 to 100
3 | CCCCCCCCCCCCc1c[nH]c(C(=O)OCC(F)(F)F)c1F [Example 15, 2,2,2-Trifluoroethyl 4-dodecyl-3-fluoro-1H-pyrrole-2-carboxylate] | < 250 | < 50
4 | CCCCCCCCCCOc1c[nH]c(C(=O)O)c1Cl [Example 78, 3-Chloro-4-(decyloxy)-1H-pyrrole-2-carboxylic acid] | < 250 | < 50
5 | CCCCCCCCCCCC(F)Cc1c[nH]c(C(=O)O)c1F (stereo not shown) [Example 93, 3-Fluoro-4-(2-fluorotridecyl)-1H-pyrrole-2-carboxylic acid] | < 250 | < 50
6 | CCCCCCCCCCCCCc1c[nH]c(C(=O)OC(C)OC(=O)OC(C)(C)C)c1F (stereo not shown) [Example 45, 1-((Tert-butoxycarbonyl)oxy)ethyl 3-fluoro-4-tridecyl-1H-pyrrole-2-carboxylate] | < 250 | 50 to 100
7 | CCCCCCCCCCCCOc1c[nH]c(C(=O)OCCN2C(=O)CCC2=O)c1 [Example 3, 2-(2,5-Dioxopyrrolidin-1-yl)ethyl 4-(dodecyloxy)-1H-pyrrole-2-carboxylate] | 1000 to 5000 | –
8 | CCCCCCCCCCCc1cc(F)c(C(=O)O)[nH]1 [Example 119, 3-Fluoro-5-undecyl-1H-pyrrole-2-carboxylic acid] | < 250 | 50 to 100
9 | CCCCCCCCCCCCCc1c[nH]c(C(=O)OCCN2CCCC2=O)c1F [Example 29, 2-(2-Oxopyrrolidin-1-yl)ethyl 3-fluoro-4-tridecyl-1H-pyrrole-2-carboxylate] | < 250 | 100 to 250
10 | CCCCCCCCCCCCCc1c[nH]c(C(=O)O)c1Br [Example 68, 3-Bromo-4-tridecyl-1H-pyrrole-2-carboxylic acid] | 250 to 1000 | –
11 | CCCCCCCCCCCCOc1c[nH]c(C(=O)OC(C)OC(=O)OCCCO)c1Cl (stereo not shown) [Example 87, 1-(((3-Hydroxypropoxy)carbonyl)oxy)ethyl 3-chloro-4-(dodecyloxy)-1H-pyrrole-2-carboxylate] | < 250 | < 50
12 | CCCCCCCCCCCCCCCCCc1c[nH]c(C(=O)O)c1F [Example 54, 3-Fluoro-4-heptadecyl-1H-pyrrole-2-carboxylic acid] | < 250 | < 50
13 | CCCCCCCCCCCCCc1c[nH]c(C(=O)OCC(F)(F)F)c1Cl [Example 108, 2,2,2-Trifluoroethyl 3-chloro-4-tridecyl-1H-pyrrole-2-carboxylate] | 250 to 1000 | –
14 | CCCCCCCCCCCCCc1c[nH]c(C(=O)OCCN2C(=O)CCC2=O)c1F [Example 28, 2-(2,5-Dioxopyrrolidin-1-yl)ethyl 3-fluoro-4-tridecyl-1H-pyrrole-2-carboxylate] | < 250 | 50 to 100
15 | CCCCCCCCCCCCc1c[nH]c(C(=O)OCCCCCCCCCO)c1Cl [Example 59, 9-Hydroxynonyl 3-chloro-4-dodecyl-1H-pyrrole-2-carboxylate] | 250 to 1000 | –
16 | CCCCCCCCCCCCCc1c[nH]c(C(=O)OCc2oc(=O)oc2C)c1F [Example 30, (5-Methyl-2-oxo-1,3-dioxol-4-yl)methyl 3-fluoro-4-tridecyl-1H-pyrrole-2-carboxylate] | < 250 | < 50
17 | CCCCCCCCCCCCCCc1cc(Cl)c(C(=O)O)[nH]1 [Example 67, 3-Chloro-5-tetradecyl-1H-pyrrole-2-carboxylic acid] | 250 to 1000 | –
18 | CCCCCCCCCCCCCc1c[nH]c(C(=O)OCC(=O)N(C)CC(=O)OCC)c1F [Example 31, 2-((2-Ethoxy-2-oxoethyl)(methyl)amino)-2-oxoethyl 3-fluoro-4-tridecyl-1H-pyrrole-2-carboxylate] | < 250 | < 50
19 | CCCCCCCCCCCCCc1c[nH]c(C(=O)OC(CO)CO)c1F [Example 41, 1,3-Dihydroxypropan-2-yl 3-fluoro-4-tridecyl-1H-pyrrole-2-carboxylate] | < 250 | < 50
20 | CCCCCCCCCCCCOc1c[nH]c(C(=O)OCCN2CCCC2=O)c1 [Example 4, 2-(2-Oxopyrrolidin-1-yl)ethyl 4-(dodecyloxy)-1H-pyrrole-2-carboxylate] | 1000 to 5000 | –

Row | Structure (SMILES) | IC50 [1] [nM] | IC50 [2] [nM]
21 | CCCCCCCCCCCCc1cc(Cl)c(C(=O)OCC(O)CO)[nH]1 (stereo not shown) [Example 118, 2,3-Dihydroxypropyl 3-chloro-5-dodecyl-1H-pyrrole-2-carboxylate] | 250 to 1000 | –
22 | CCCCCCCCCCC(C)(C)Cc1c[nH]c(C(=O)O)c1F [Example 102, 4-(2,2-Dimethyldodecyl)-3-fluoro-1H-pyrrole-2-carboxylic acid] | < 250 | < 50
23 | CCCCCCCCCCCCCCc1cc(F)c(C(=O)O)[nH]1 [Example 121, 3-Fluoro-5-tetradecyl-1H-pyrrole-2-carboxylic acid] | < 250 | < 50
24 | CCCCCCCCCCCCc1c[nH]c(C(=O)OC(C)OC(=O)OC(C)C)c1F (stereo not shown) [Example 17, 1-((Isopropoxycarbonyl)oxy)ethyl 4-dodecyl-3-fluoro-1H-pyrrole-2-carboxylate] | < 250 | < 50
25 | CCCCCCCCCCCCCc1c[nH]c(C(=O)OCC)c1F [Example 20, Ethyl 3-fluoro-4-tridecyl-1H-pyrrole-2-carboxylate] | 1000 to 5000 | –
26 | CCCCCCCCCCCCCc1c[nH]c(C(=O)OCc2ccccc2)c1F [Example 26, Benzyl 3-fluoro-4-tridecyl-1H-pyrrole-2-carboxylate] | < 250 | 100 to 250
27 | CCCCCCCCCCCCc1cc(F)c(C(=O)O)[nH]1 [Example 55, 5-Dodecyl-3-fluoro-1H-pyrrole-2-carboxylic acid] | < 250 | 50 to 100
28 | CCCCCCCCCCCCc1cc(Cl)c(C(=O)OC(C)OC(=O)OCCOC)[nH]1 (stereo not shown) [Example 116, 1-(((2-Methoxyethoxy)carbonyl)oxy)ethyl 3-chloro-5-dodecyl-1H-pyrrole-2-carboxylate] | < 250 | 50 to 100
29 | CCCCCCCCCCCCc1cc(Cl)c(C(=O)OC(C)OC(=O)OCCOCCOCC)[nH]1 (stereo not shown) [Example 117, 4-Oxo-3,5,8,11-tetraoxatridecan-2-yl 3-chloro-5-dodecyl-1H-pyrrole-2-carboxylate] | < 250 | 100 to 250
30 | CCCCCCCCCCC(C)(C)Cc1cc(Cl)c(C(=O)O)[nH]1 [Example 127, 3-Chloro-5-(2,2-dimethyldodecyl)-1H-pyrrole-2-carboxylic acid] | 250 to 1000 | < 50
31 | CCCCCCCCCCCCOc1c[nH]c(C(=O)OCCOCCOCCOCCO)c1 [Example 7, 2-(2-(2-(2-Hydroxyethoxy)ethoxy)ethoxy)ethyl 4-(dodecyloxy)-1H-pyrrole-2-carboxylate] | > 5000 | –
32 | CCCCCCCCCCCCCc1c[nH]c(C(=O)O)c1F [Example 21, 3-Fluoro-4-tridecyl-1H-pyrrole-2-carboxylic acid] | < 250 | < 50
33 | CCCCCCCCCCCC(F)(F)Cc1c[nH]c(C(=O)O)c1F [Example 94, 4-(2,2-Difluorotridecyl)-3-fluoro-1H-pyrrole-2-carboxylic acid] | < 250 | 100 to 250
34 | CCCCCCCCCCCCOc1c[nH]c(C(=O)O)c1Cl [Example 80, 3-Chloro-4-(dodecyloxy)-1H-pyrrole-2-carboxylic acid] | < 250 | < 50
35 | CCCCCCCCCCCCOc1c[nH]c(C(=O)OCC(F)(F)F)c1Cl [Example 81, 2,2,2-Trifluoroethyl 3-chloro-4-(dodecyloxy)-1H-pyrrole-2-carboxylate] | < 250 | 100 to 250
36 | CCCCCCCCCCCCc1cc(Cl)c(C(=O)O)n1C [Example 130, 3-Chloro-5-dodecyl-1-methyl-1H-pyrrole-2-carboxylic acid] | > 5000 | 100 to 250
37 | O=C(O)c1[nH]c(CCCCCCCCCCCCCCF)cc1F [Example 131, 3-Fluoro-5-(14-fluorotetradecyl)-1H-pyrrole-2-carboxylic acid] | < 250 | 100 to 250
38 | CCOCCCCCCCCCCCCc1c[nH]c(C(=O)O)c1F [Example 92, 4-(12-Ethoxydodecyl)-3-fluoro-1H-pyrrole-2-carboxylic acid] | < 250 | < 50
39 | CCCCCCCCCCCCCc1c[nH]c(C(=O)OCCOCCOCCOCCO)c1F [Example 42, 2-(2-(2-(2-Hydroxyethoxy)ethoxy)ethoxy)ethyl 3-fluoro-4-tridecyl-1H-pyrrole-2-carboxylate] | < 250 | 100 to 250
40 | CCCCCCCCCCCCCCc1c[nH]c(C(=O)O)c1F [Example 52, 3-Fluoro-4-tetradecyl-1H-pyrrole-2-carboxylic acid] | < 250 | < 50

Source: patent US20210220328A1, “PYRROLE DERIVATIVES AS ACC INHIBITORS” (Almirall, S.A., priority 2017, published 2021)
